Measured values as given in US8716285B2, “N-hydroxy-benzamids for the treatment of cancer” (Hoffmann-La Roche Inc., priority 2010, dated 2014).

Test system: RPMI-8226 cells
Assay: Growth inhibitory synergy with Velcade, WST/CCK-8 assay
Type: cell-based
Conditions: 72 h
Procedure: Cells were seeded in 96-well culture plates (200 μl/well at different seeding concentrations depending on cell type) and incubated overnight at 37° C. in 5% CO2. After adding compound dilutions to the cells (DMSO concentration kept below 0.5%), the cells were incubated at 37° C. in 5% CO2 for 72 hours. The effects on proliferation were determined by addition of CCK-8 reagent (Dojindo) according to the manufacturer's instruction, followed by incubation for 2 hours at 37° C. in 5% CO2, and finally recording the absorbance at 450 nm using an ELISA plate reader.
Novel compounds were tested for their synergistic effect with Velcade in multiple myeloma cells in vitro. Briefly, the multiple myeloma cells (RPMI-8226, OPM-2, or NCI-H929) were seeded into 96 well plate at 18000-20000 cells per well. The GI50s of these compounds against myeloma cells were measured by WST assay. […] The tested compound and Velcade used the same dilution factor in the combination treatment. […] After 72 h treatment, cell viability was measured at 450 nm by SpectraMAX190 after 2 h incubation with CCK8 reagent at 37° C. Synergy between the tested compounds and velcade was analyzed by software Calcusyn. […]
Notes: Chou and Talalay in 1983 proposed the designation of CI (combination index)=1 as the additive effect. […] It can be calculated by the equation above. […]

O=C(NO)c1ccc2c(c1)CC(Nc1nccc(-c3cccnc3)n1)CC2 (stereo not shown) [Example 24, 7-(4-Pyridin-3-yl-pyrimidin-2-ylamino)-5,6,7,8-tetrahydro-naphthalene-2-carboxylic acid hydroxyamide]
synergy with Velcade in cell growth inhibition: synergized with Velcade
